Measured values as given in patent US6747052B2, “Substituted indole-2-carboxylic acid benzylidene-hydrazides and analogs as activators of caspases and inducers of apoptosis and the use thereof” (Cytovia, Inc., priority 2000, dated 2004).
Entries after “also recorded” stand apart in the source; their conditions may differ. Where two headings read alike, the source gives them in different places.

Tests used:
T-47D [1] = experiment: Caspase cascade activation (N-(Ac-DEVD)-N'-ethoxycarbonyl-R110 fluorogenic substrate) in T-47D cells; type: cell-based, Human; details: 24 h incubation with compound; for Caspase activity Ratio (net RFU of test compound to control): 3 h substrate reading; for EC50: Homo sapiens, T47D
Experimental: (§1) Human breast cancer cell lines T-47D and ZR-75-1 were grown according to media component mixtures designated by American Type Culture Collection +10% FCS (Invitrogen Corporation, Life Technologies division), in a 5% CO2-95% humidity incubator at 37° C. T-47D and ZR-75-1 cells were maintained at a cell density between 30 and 80% confluency at a cell density of 0.1 to 0.6×10^6 cells/ml. Cells were harvested at 600×g and resuspended at 0.65×10^6 cells/ml into appropriate media +10% FCS. An aliquot of 45 μl of cells was added to a well of a 96-well microtiter plate containing 5 μl of a 10% DMSO in RPMI-1640 media solution containing 0.16 to 100 μM of 5-chloro-3-methyl-indole-2-carboxylic acid (4-nitrobenzylidene)-hydrazide (Compound A) or other test compound (0.016 to 10 μM final). An aliquot of 45 μl of cells was added to a well of a 96-well microtiter plate containing 5 μl of a 10% DMSO in RPMI-1640 media solution without test compound as the control sample. The samples were mixed by agitation and then incubated at 37° C. for 24 h in a 5% CO2-95% humidity incubator. After incubation, the samples were removed from the incubator and 50 μl of a solution containing 20 μM of N-(Ac-DEVD)-N′-ethoxycarbonyl-R110 fluorogenic substrate (Cytovia, Inc.; WO99/18856), 20% sucrose (Sigma), 20 mM DTT (Sigma), 200 mM NaCl (Sigma), 40 mM Na PIPES buffer pH 7.2 (Sigma), and 500 μg/ml lysolecithin (Calbiochem) was added. The samples were mixed by agitation and incubated at room temperature. Using a fluorescent plate reader (Model 1420 Wallac Instruments), an initial reading (T=0) was made approximately 1-2 min after addition of the substrate solution, employing excitation at 485 nm and emission at 530 nm, to determine the background fluorescence of the control sample. After the 3 h incubation, the samples were read for fluorescence as above (T=3 h).
(§2) The Relative Fluorescence Unit values (RFU) were used to calculate the sample readings as follows: RFU(T=3h)−Control RFU(T=0)=Net RFU(T=3h)
(§3) The activity of caspase cascade activation was determined by the ratio of the net RFU value for 5-chloro-3-methyl-indole-2-carboxylic acid (4-nitrobenzylidene)-hydrazide (Compound A) or other test compound to that of control samples. The EC50 (nM) was determined by a sigmoidal dose-response calculation (Prism 2.0, GraphPad Software Inc.).

T47D cells = experiment: Cell cycle arrest and apoptosis in T47D cells (propidium iodide flow cytometry); type: cell-based, Human; details: 10 μM, 48 h
Experimental: T47D, a breast cancer cell line, was maintained and harvested as described in Example 1. 1×10^6 Cells were treated with 10 μM of 5-chloro-3-methyl-indole-2-carboxylic acid (4-nitrobenzylidene)-hydrazide for 48 h at 37° C. As a control, cells were also incubated with equivalent amount of solvent (DMSO). Cells were harvested at 1,200 rpm and washed twice with 5 mM EDTA/PBS. Cells were then resuspended in 300 μl EDTA/PBS and 700 μl of 100% ethanol, vortexed and incubated at room temperature for 1 h. Samples were spun down at 1,200 rpm for 5 min and the supernatant was removed. A solution containing 100 μg/ml of propidium iodide and 1 mg/ml of RNAse A (fresh) was added to the samples and incubated for 1 h at room temperature. Samples were then transferred to 12×75 mm polystyrene tubes and analyzed on a flow cytometer. All flow cytometry analyses were performed on FACScalibur (Becton Dickinson) using Cell Quest analysis software. The x-axis plotted the amount of fluorescence and the y-axis is plotted the number of cells with the indicated fluorescence. […] An increase in the sub-diploid DNA content of cells (marker M1 region, FIG. 3) is also seen to increase from 2% to 25% with compound treatment. The sub-diploid amount of DNA (M1) is indicative of apoptotic cells which have undergone DNA degradation or fragmentation.

ZR-75-1 [2] = experiment: Inhibition of cell proliferation (GI50, CellTiter 96 AQueous One) in ZR-75-1 cells; type: cell-based; details: Homo sapiens, ZR-75-1, 48 h; read-out: GI50 (dose for 50% inhibition of cell proliferation)
Experimental: (§4) T-47D and ZR-75-1 cells were grown and harvested as in Example 1. An aliquot of 90 μl of cells (2.2×10^4 cells/ml) was added to a well of a 96-well microtiter plate containing 10 μl of a 10% DMSO in RPMI-1640 media solution containing 1 nM to 100 μM of 5-chloro-3-methyl-indole-2-carboxylic acid (4-nitrobenzylidene)-hydrazide (Compound A) or 5-chloro-3-phenyl-indole-2-carboxylic acid (4-nitrobenzylidene)-hydrazide (Compound B) (0.1 nM to 10 μM final). An aliquot of 90 μl of cells was added to a well of a 96-well microtiter plate containing 10 μl of a 10% DMSO in RPMI-1640 media solution without compound as the control sample for maximal cell proliferation (AMax). The samples were mixed by agitation and then incubated at 37° C. for 48 h in a 5% CO2-95% humidity incubator. […] Using an absorbance plate reader (Model 1420 Wallac Instruments), an initial reading (T=0) was made approximately 1-2 min after addition of the solution, employing absorbance at 490 nm. This determines the possible background absorbance of the test compounds. No absorbance for 5-chloro-3-methyl-indole-2-carboxylic acid (4-nitrobenzylidene)-hydrazide or 5-chloro-3-phenyl-indole-2-carboxylic acid (4-nitrobenzylidene)-hydrazide was found at 490 nm. After the 2-4 h incubation, the samples were read for absorbance as above (ATest). […]

Jurkat cells [3] = experiment: Nuclear fragmentation in Jurkat cells (Syto16 staining); type: cell-based; details: 5 μM, 24 h
Experimental: The ability of 5-chloro-3-methyl-indole-2-carboxylic acid (4-nitrobenzylidene)-hydrazide to induce nuclear fragmentation, an indicator of apoptosis, was tested by treatment of Jurkat cells with the test compound followed by staining of the nucleus with Syto16, a fluorescent DNA dye (Molecular Probes, Eugene, Oreg.). The nuclei of Jurkat cells treated with vehicle control (DMSO) are seen to be round with dispersed chromatin that is moderately stained with Syto16 (FIG. 1A).

HeLa cells = experiment: Clonogenic survival of HeLa cells; type: cell-based; details: for IC50: Homo sapiens
Experimental: HeLa cells were grown according to media component mixtures designated by American Type Culture Collection +10% FCS (Invitrogen Corporation, Life Technologies division), in a 5% CO2-95% humidity incubator at 37° C. In a well of a 96 well plate, 30,000 cells were seeded and treated with testing compound at the indicated concentrations for 48 hr in a 5% CO2-95% humidity incubator at 37° C. Control wells were treated with the same amount of solvent (DMSO) as the compound samples. After the indicated treatment time, the supernatant was removed to a sterile culture tube and the wells washed with phosphate buffered saline, and the adherent cells trypsinized for 5 min. The trypsinzed cells were added to the culture supernatant, cells were collected (1,200 rpm, 10 min), washed with phosphate buffered saline, and resupended in fresh media. The cells were counted for trypan blue negative cells, and the cells diluted with fresh media to 1,000 cells/ml. To a well of a 24-well plate, 0.1 ml of the cell suspension was added along with 1 ml of fresh media (cell suspensions were passed through a 22G needle several times just before plating to form single cell suspensions). Plates are incubated in a 5% CO2-95% humidity incubator at 37° C. for 5-7 days. Colonies are counted when the sizes reached greater than 50 cells per colony. Cells are washed with phosphate buffered saline, fixed with 100% methanol for 15 min, and then stained with 0.5% gentian violet for 15 min. Colonies are rinsed with water and the colonies counted and the fraction surviving expressed as the percentage of the number of control colonies.

Jurkat cells [4] = experiment: Mitotic arrest in Jurkat cells (mitotic figures, Syto 16); type: cell-based; details: Homo sapiens, 6 h
Experimental: Jurkat cells were incubated with a range of concentrations of 5-chloro-3-methyl-indole-2-carboxylic acid (4-nitrobenzylidene)-hydrazide (0.02 μM to 5 μM) for 6 h under normal growth conditions; control cultures were treated with DMSO vehicle. The cells were then treated for 20 min. with 800 nM Syto 16 (Molecular Probes, Eugene, Oreg.). Cytospin preparations were then prepared and the samples were viewed by fluorescent microscopy using a fluorescein filter set. For each concentration of test compound, the number of mitotic figures were counted and expressed as a percentage of the total number of cells. Three fields from each condition were evaluated and the mean and SEM were calculated and plotted as a function of drug concentration (FIG. 2).

T-47D [5] = experiment: Inhibition of cell proliferation (GI50, CellTiter 96 AQueous One) in T-47D cells; type: cell-based; details: Homo sapiens, T47D, 48 h, read-out: GI50 (dose for 50% inhibition of cell proliferation)
Experimental: as §4

ZR-75-1 [6] = experiment: Caspase cascade activation (N-(Ac-DEVD)-N'-ethoxycarbonyl-R110 fluorogenic substrate) in ZR-75-1 cells; type: cell-based, Human; details: ZR-75-1, 24 h incubation with compound; for EC50: Homo sapiens; for Caspase activity Ratio (net RFU of test compound to control): 3 h substrate reading
Experimental: as §1, §2, §3

[7] = 48 hr treatment, read-out: IC50 of colony forming ability
[8] = 48 h treatment, FIG. 4 legend, read-out: IC50 of colony formation

| EC50 (T-47D [1]) | EC50 (Jurkat cells [4]) | GI50 (T-47D [5]) | EC50 (ZR-75-1 [6]) | SMILES | Caspase activity Ratio (net RFU of test compound to control) (T-47D [1]) | G2/M DNA content (M4) of cells (T47D cells) | Sub-diploid DNA content of cells (M1) (T47D cells; control 2%) | GI50 (ZR-75-1 [2]) | Nuclear morphology (nuclear fragmentation) (Jurkat cells [3]) | IC50 (HeLa cells; [7]) | IC50 (HeLa cells; [8]) | Caspase activity Ratio (net RFU of test compound to control) (ZR-75-1 [6]) | Increase in potency in clonogenic survival assay versus Compound A (HeLa cells; 48 hr treatment) |
| --- | --- | --- | --- | --- | --- | --- | --- | --- | --- | --- | --- | --- | --- |
| 2000 nM | ~800 nM | 2000 nM | 532 nM | Cc1c(C(=O)NN=Cc2ccc([N+](=O)[O-])cc2)[nH]c2ccc(Cl)cc12 [Compound A, 5-chloro-3-methyl-indole-2-carboxylic acid (4-nitrobenzylidene)-hydrazide] | 6.9 | increase in G2/M DNA content; also recorded: an increase in the G2/M (M4) | 25% | 12000 nM | shrunken and fragmented nuclei | ~3000 nM | ~3000 nM | 7.0 |  |
| 501 nM |  | 100 nM | 276 nM | O=C(NN=Cc1ccc([N+](=O)[O-])cc1)c1[nH]c2ccc(Cl)cc2c1-c1ccccc1 [Compound B, 5-chloro-3-phenyl-indole-2-carboxylic acid (4-nitrobenzylidene)-hydrazide] | 3 |  |  |  |  | ~300 nM | ~300 nM | 2.9 | 10 fold |
| 253 nM |  |  | 187 nM | Cc1ccc(C=NNC(=O)c2[nH]c3ccc(Cl)cc3c2C)cc1 [Example 1, 5-Chloro-3-methyl-indole-2-carboxylic Acid (4-Methylbenzylidene)-hydrazide] | 3.7 |  |  |  |  |  |  | 2.6 |  |
| 4280 nM |  |  | 1490 nM | Cc1c(C(=O)NN=Cc2ccccc2)[nH]c2ccc(Cl)cc12 [Example 2, 5-Chloro-3-methyl-indole-2-carboxylic Acid (Benzylidene)-hydrazide] | 5.1 |  |  |  |  |  |  | 4.1 |  |
| 939 nM |  |  | 449 nM | Cc1c(C(=O)NN=Cc2ccc(N(C)C)cc2)[nH]c2ccc(Cl)cc12 [Example 3, 5-Chloro-3-methyl-indole-2-carboxylic Acid (4-Dimethylaminobenzylidene)-hydrazide] | 6.0 |  |  |  |  |  |  | 7.2 |  |
| 300 nM |  |  | 100 nM | Cc1ccc(C=NNC(=O)c2[nH]c3ccc(C)cc3c2-c2ccccc2)cc1 [Example 13, 5-Methyl-3-phenyl-indole-2-carboxylic Acid (4-Methylbenzylidene)-hydrazide] | 3.1 |  |  |  |  |  |  | 7.6 |  |
| 2400 nM |  |  | 830 nM | Cc1ccc2[nH]c(C(=O)NN=Cc3ccc(N(C)C)cc3)c(-c3ccccc3)c2c1 [Example 14, 5-Methyl-3-phenyl-indole-2-carboxylic Acid (4-Dimethylaminobenzylidene)-hydrazide] | 3.5 |  |  |  |  |  |  | 4.1 |  |
| 3650 nM |  |  | 2770 nM | Cc1c(C(=O)NN=Cc2ccc(Cl)cc2)[nH]c2ccc(Cl)cc12 [Example 21, 5-Chloro-3-methyl-indole-2-carboxylic Acid (4-Chlorobenzylidene)-hydrazide] | 4.2 |  |  |  |  |  |  | 3.5 |  |
